How the values were obtained:
NCI-H226 = experiment: NCI60 antitumor screening; type: cell-based, human; settings: Homo sapiens; 10 μM single dose; NCI-H226 (non-small cell lung cancer); read-out: growth inhibition percent (GI%)
K-562 = experiment: NCI60 antitumor screening; type: cell-based, human; settings: Homo sapiens; 10 μM single dose; (leukaemia); read-out: growth inhibition percent (GI%)
SW-620 = experiment: NCI60 antitumor screening; type: cell-based, human; settings: Homo sapiens; 10 μM single dose; SW-620 (colon cancer); read-out: growth inhibition percent (GI%)
NCI-H522 = experiment: NCI60 antitumor screening; type: cell-based, human; settings: Homo sapiens; 10 μM single dose; NCI-H522 (non-small cell lung cancer); read-out: growth inhibition percent (GI%)
SNB-19 = experiment: NCI60 antitumor screening; type: cell-based, human; settings: Homo sapiens; 10 μM single dose; SNB-19 (CNS cancer); read-out: growth inhibition percent (GI%)
MDA-MB-435 = experiment: NCI60 antitumor screening; type: cell-based, human; settings: Homo sapiens; 10 μM single dose; MDA-MB-435 (melanoma); read-out: growth inhibition percent (GI%)
MALME-3M = experiment: NCI60 antitumor screening; type: cell-based, human; settings: Homo sapiens; 10 μM single dose; MALME-3M (melanoma); read-out: growth inhibition percent (GI%)
RPMI-8226 = experiment: NCI60 antitumor screening; type: cell-based, human; settings: Homo sapiens; 10 μM single dose; RPMI-8226 (leukaemia); read-out: growth inhibition percent (GI%)
HOP-92 = experiment: NCI60 antitumor screening; type: cell-based, human; settings: Homo sapiens; 10 μM single dose; HOP-92 (non-small cell lung cancer); read-out: growth inhibition percent (GI%)
KM12 = experiment: NCI60 antitumor screening; type: cell-based, human; settings: Homo sapiens; 10 μM single dose; KM12 (colon cancer); read-out: growth inhibition percent (GI%)
CAKI-1 = experiment: NCI60 antitumor screening; type: cell-based, human; settings: Homo sapiens; 10 μM single dose; CAKI-1 (renal cancer); read-out: growth inhibition percent (GI%)
UACC-257 = experiment: NCI60 antitumor screening; type: cell-based, human; settings: Homo sapiens; 10 μM single dose; UACC-257 (melanoma); read-out: growth inhibition percent (GI%)
SK-OV-3 = experiment: NCI60 antitumor screening; type: cell-based, human; settings: Homo sapiens; 10 μM single dose; SK-OV-3 (ovarian cancer); read-out: growth inhibition percent (GI%)
A549/ATCC = experiment: NCI60 antitumor screening; type: cell-based, human; settings: Homo sapiens; 10 μM single dose; A549/ATCC (non-small cell lung cancer); read-out: growth inhibition percent (GI%)
HOP-62 = experiment: NCI60 antitumor screening; type: cell-based, human; settings: Homo sapiens; 10 μM single dose; HOP-62 (non-small cell lung cancer); read-out: growth inhibition percent (GI%)
TK-10 = experiment: NCI60 antitumor screening; type: cell-based, human; settings: Homo sapiens; 10 μM single dose; TK-10 (renal cancer); read-out: growth inhibition percent (GI%)
LOX IMVI = experiment: NCI60 antitumor screening; type: cell-based, human; settings: Homo sapiens; 10 μM single dose; LOX IMVI (melanoma); read-out: growth inhibition percent (GI%)
MDA-MB-468 = experiment: NCI60 antitumor screening; type: cell-based, human; settings: Homo sapiens; 10 μM single dose; MDA-MB-468 (breast cancer); read-out: growth inhibition percent (GI%)
DU-145 = experiment: NCI60 antitumor screening; type: cell-based, human; settings: Homo sapiens, DU-145; read-out: growth inhibition percent (GI%)
MCF7 = experiment: NCI60 antitumor screening; type: cell-based, human; settings: Homo sapiens; 10 μM single dose; MCF7 (breast cancer); read-out: growth inhibition percent (GI%)
RXF 393 = experiment: NCI60 antitumor screening; type: cell-based, human; settings: Homo sapiens; 10 μM single dose; RXF 393 (renal cancer); read-out: growth inhibition percent (GI%)
OVCAR-8 = experiment: NCI60 antitumor screening; type: cell-based, human; settings: Homo sapiens; 10 μM single dose; OVCAR-8 (ovarian cancer); read-out: growth inhibition percent (GI%)
786–0 = experiment: NCI60 antitumor screening; type: cell-based, human; settings: Homo sapiens; 10 μM single dose; 786–0 (renal cancer); read-out: growth inhibition percent (GI%)
U251 = experiment: NCI60 antitumor screening; type: cell-based, human; settings: Homo sapiens, U-251; 10 μM single dose; U251 (CNS cancer); read-out: growth inhibition percent (GI%)
SNB-75 = experiment: NCI60 antitumor screening; type: cell-based, human; settings: Homo sapiens; 10 μM single dose; SNB-75 (CNS cancer); read-out: growth inhibition percent (GI%)
SR = experiment: NCI60 antitumor screening; type: cell-based, human; settings: Homo sapiens; 10 μM single dose; SR (leukaemia); read-out: growth inhibition percent (GI%)
MDA-MB-231/ATCC = experiment: NCI60 antitumor screening; type: cell-based, human; settings: Homo sapiens; 10 μM single dose; MDA-MB-231/ATCC (breast cancer); read-out: growth inhibition percent (GI%)

Structure (SMILES) | inhibition at 10 µM (NCI-H226) | inhibition at 10 µM (K-562) | inhibition at 10 µM (SW-620) | inhibition at 10 µM (NCI-H522) | inhibition at 10 µM (SNB-19) | inhibition at 10 µM (MDA-MB-435) | inhibition at 10 µM (MALME-3M) | inhibition at 10 µM (RPMI-8226) | inhibition at 10 µM (HOP-92) | inhibition at 10 µM (KM12) | inhibition at 10 µM (CAKI-1) | inhibition at 10 µM (UACC-257) | inhibition at 10 µM (SK-OV-3) | inhibition at 10 µM (A549/ATCC) | melting point | inhibition at 10 µM (HOP-62) | inhibition at 10 µM (TK-10) | inhibition at 10 µM (LOX IMVI) | inhibition at 10 µM (MDA-MB-468) | inhibition at 10 µM (DU-145) | also measured
Cc1ccc(CSc2nc(-c3ccc(F)cc3)c(C#N)c(N3CCN(c4ccccc4)CC3)n2)cc1 [4p, 4-(4-Fluorophenyl)-2-((4-methylbenzyl)thio)-6-(4-phenylpiperazin-1-yl) pyrimidine-5-carbonitrile] | < 10% | 18% | < 10% | 13.8% | < 10% | 10.3% | < 10% | 18.4% | < 10% | < 10% | 16.6% | 14.1% | < 10% | 11.6% | 145 to 147 °C | < 10% | < 10% | < 10% | 13.6% | < 10% | inhibition at 10 µM (MCF7): 21.3%; inhibition at 10 µM (RXF 393): < 10%; inhibition at 10 µM (OVCAR-8): < 10%; inhibition at 10 µM (786–0): < 10%; inhibition at 10 µM (U251): < 10%; inhibition at 10 µM (SNB-75): 14.8%
N#Cc1c(-c2ccc(F)cc2)nc(SCc2ccc(F)cc2)nc1N1CCN(c2ccccc2)CC1 [4n, 2-((4-Fluorobenzyl)thio)-4-(4-fluorophenyl)-6-(4-phenylpiperazin-1-yl)pyrimidine-5-carbonitrile] | < 10% | 12.5% | < 10% | 10.3% | < 10% | < 10% | < 10% | 22.3% | < 10% | < 10% | 16.3% | 12.9% | < 10% | < 10% | 180 to 182 °C | < 10% | < 10% | < 10% | < 10% | < 10% | inhibition at 10 µM (MCF7): 24.8%; inhibition at 10 µM (RXF 393): < 10%; inhibition at 10 µM (OVCAR-8): < 10%; inhibition at 10 µM (786–0): < 10%; inhibition at 10 µM (U251): < 10%; inhibition at 10 µM (SNB-75): 15.6%
N#Cc1c(-c2ccc(F)cc2)nc(SCc2ccc([N+](=O)[O-])cc2)nc1N1CCN(c2ccccc2)CC1 [4o, 4-(4-Fluorophenyl)-2-((4-nitrobenzyl)thio)-6-(4-phenylpiperazin-1-yl)pyrimidine-5-carbonitrile] | < 10% | < 10% | < 10% | < 10% | < 10% | < 10% | < 10% | 15.3% | < 10% | < 10% | 13.7% | < 10% | < 10% | < 10% | 165 to 167 °C | < 10% | < 10% | < 10% | 10.9% | < 10% | inhibition at 10 µM (MCF7): 14.8%; inhibition at 10 µM (RXF 393): < 10%; inhibition at 10 µM (OVCAR-8): < 10%; inhibition at 10 µM (786–0): < 10%; inhibition at 10 µM (U251): < 10%; inhibition at 10 µM (SNB-75): 12.4%
N#Cc1c(-c2ccc(F)cc2)nc(SCc2ccccc2)nc1N1CCN(c2ccccc2)CC1 [4m, 2-(Benzylthio)-4-(4-fluorophenyl)-6-(4-phenylpiperazin-1-yl) pyrimidine-5-carbonitrile] | < 10% | 10.6% | < 10% | < 10% | < 10% | < 10% | < 10% | 14.2% | < 10% | < 10% | 10.7% | < 10% | < 10% | < 10% | 165 to 167 °C | < 10% | < 10% | < 10% | < 10% | < 10% | inhibition at 10 µM (SR): < 10%; inhibition at 10 µM (MCF7): 16.1%; inhibition at 10 µM (RXF 393): < 10%; inhibition at 10 µM (OVCAR-8): < 10%; inhibition at 10 µM (786–0): < 10%; inhibition at 10 µM (U251): < 10%; inhibition at 10 µM (MDA-MB-231/ATCC): < 10%; inhibition at 10 µM (SNB-75): < 10%

Source: publication PMC10620772, “Design, synthesis, and biological evaluation of new pyrimidine-5-carbonitrile derivatives as novel anti-cancer, dual EGFR^WT/COX-2 inhibitors with docking studies” (RSC Advances, 2023)
